Assays:
KP1009 (CTX-M-15) [1] = assay: Potentiation of tigemonam, strain KP1009
ECL1002 = assay: Potentiation of aztreonam, strain ECL1002; assay type: cell-based; conditions: minimum BLI concentration inhibiting growth with 4 μg/mL aztreonam
PAM1154/KPC-2 = assay: Biapenem potentiation in PAM1154/KPC-2 (MexAB-OprM lacking); assay type: cell-based, Pseudomonas aeruginosa
Method: (§1) Efflux of BLIs from Pseudomonas aeruginosa by the MexAB-OprM efflux pump was also evaluated. […] Due to expression of KPC-2 both strains became resistant to biapenem. […] Potency of BLIs to potentiate biapenem in these strains was determined. […] The ratio of MPC64 values for each BLI in PAM1032/KPC-2 (efflux proficient) and PAM1154/KPC-2 (efflux deficient) was determined to generate the Efflux Index (EI).

ec308 (SHV-5) [2] = assay: Potentiation of tigemonam, strain ec308; assay type: cell-based
KP1009 (CTX-M-15) [3] = assay: Potentiation of aztreonam, strain KP1009; assay type: cell-based
EC1010 (CMY-6) [4] = assay type: cell-based
CMY-2 = CMY-2 (Klebsiella pneumoniae, UniProt Q48434); assay: Inhibition of nitrocefin cleavage by purified CMY-2; assay type: biochemical; conditions: nitrocefin reporter substrate, purified enzyme; read-out: Ki (CMY-2, NCF)
Method: (§2) Purified enzymes were mixed with various concentrations of inhibitors in reaction buffer and incubated for 10 min at room temperature. Nitrocefin was added and substrate cleavage profiles were recorded at 490 nm every 10 sec for 10 min.

ec302 (TEM-10) [5] = assay: Potentiation of aztreonam, strain ec302; assay type: cell-based
OXA-48 = OXA-48 (Klebsiella pneumoniae, UniProt Q6XEC0); assay: Inhibition of nitrocefin cleavage by purified OXA-48; assay type: biochemical; conditions: nitrocefin reporter substrate, purified enzyme; read-out: Ki (OXA-48, NCF)
Method: as §2

KP1004 (K-2) = assay: Potentiation of aztreonam, strain KP1004; assay type: cell-based; conditions: minimum BLI concentration inhibiting growth with 4 μg/mL aztreonam
PAM1032/KPC-2 = assay: Biapenem potentiation in PAM1032/KPC-2 (MexAB-OprM overexpressed); assay type: cell-based, Pseudomonas aeruginosa; conditions: BLI potency to decrease biapenem MIC 64-fold, 32 to 0.5 μg/ml; efflux proficient strain
Method: as §1

ec302 (TEM-10) [6] = assay: Potentiation of tigemonam, strain ec302; assay type: cell-based
SHV-12 = SHV-12 (Klebsiella pneumoniae, UniProt P0AD64, E235K/G234S/L31Q); assay: Inhibition of nitrocefin cleavage by purified SHV-12; assay type: biochemical; conditions: nitrocefin reporter substrate, purified enzyme; read-out: Ki (SHV-12, NCF)
Outline: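 Purified enzyme was preincubated with a range of inhibitor concentrations in reaction buffer for 10 min at room temperature. Nitrocefin was then added and its cleavage followed at 490 nm every 10 sec for 10 min.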

CTX-M-14 = CTX-M-14 (Escherichia coli, UniProt Q9L5C7); assay: Inhibition of nitrocefin cleavage by purified CTX-M-14; assay type: biochemical; conditions: nitrocefin reporter substrate, purified enzyme; read-out: Ki (CTX-M-14, NCF)
Method: as §2

KP1005 (CTX-M-14) [7] = assay: Potentiation of aztreonam, strain KP1005; assay type: cell-based
P99 = P99 (Enterobacter cloacae, UniProt P05364); assay: Inhibition of nitrocefin cleavage by purified P99; assay type: biochemical; conditions: nitrocefin reporter substrate, purified enzyme; read-out: Ki (P99, NCF)
Method: as §2

EC1010 (CMY-6) [8] = assay: Potentiation of aztreonam, strain EC1010; assay type: cell-based
ec308 (SHV-5) [9] = assay: Potentiation of aztreonam, strain ec308; assay type: cell-based; conditions: minimum BLI concentration inhibiting growth with 4 μg/mL aztreonam
KP1010 (SHV-12) = assay: Potentiation of tigemonam, strain KP1010; conditions: strain KP1010 SHV-12, tigemonam alone
KP1005 (CTX-M-14) [10] = system: KP1005 (CTX-M-14)
[11] = minimum BLI concentration inhibiting growth with 4 μg/mL tigemonam

CTX-M-14, sequence (Q9L5C7 entry or part of it): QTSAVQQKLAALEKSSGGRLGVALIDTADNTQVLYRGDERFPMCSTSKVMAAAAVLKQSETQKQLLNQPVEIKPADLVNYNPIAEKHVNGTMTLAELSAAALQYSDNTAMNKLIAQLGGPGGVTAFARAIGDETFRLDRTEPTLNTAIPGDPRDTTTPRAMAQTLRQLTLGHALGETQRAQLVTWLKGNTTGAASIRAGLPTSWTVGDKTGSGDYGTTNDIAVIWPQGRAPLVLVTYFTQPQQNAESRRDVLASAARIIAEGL
CMY-2, sequence (Q48434 21-381, species assumed): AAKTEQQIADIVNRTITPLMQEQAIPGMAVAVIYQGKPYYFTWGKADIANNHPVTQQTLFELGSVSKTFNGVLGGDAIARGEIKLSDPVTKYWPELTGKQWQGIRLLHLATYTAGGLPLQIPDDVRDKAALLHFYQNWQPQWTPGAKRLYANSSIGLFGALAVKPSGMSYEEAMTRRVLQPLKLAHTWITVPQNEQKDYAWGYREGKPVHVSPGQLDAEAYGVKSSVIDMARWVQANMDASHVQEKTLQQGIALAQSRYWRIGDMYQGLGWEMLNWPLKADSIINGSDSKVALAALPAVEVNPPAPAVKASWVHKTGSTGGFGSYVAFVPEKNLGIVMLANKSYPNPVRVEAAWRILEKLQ
P99, sequence (P05364 21-381): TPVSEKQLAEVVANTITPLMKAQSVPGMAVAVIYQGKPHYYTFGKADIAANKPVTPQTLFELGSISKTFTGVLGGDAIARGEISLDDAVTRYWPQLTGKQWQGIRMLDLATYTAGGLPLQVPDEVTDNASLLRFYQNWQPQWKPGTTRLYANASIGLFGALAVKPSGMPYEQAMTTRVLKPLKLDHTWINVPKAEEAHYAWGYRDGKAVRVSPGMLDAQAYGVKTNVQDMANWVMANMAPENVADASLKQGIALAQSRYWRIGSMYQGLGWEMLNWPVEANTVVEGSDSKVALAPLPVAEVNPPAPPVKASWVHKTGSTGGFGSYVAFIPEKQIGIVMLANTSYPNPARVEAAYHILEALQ
OXA-48, sequence (Q6XEC0 23-265 limits assumed): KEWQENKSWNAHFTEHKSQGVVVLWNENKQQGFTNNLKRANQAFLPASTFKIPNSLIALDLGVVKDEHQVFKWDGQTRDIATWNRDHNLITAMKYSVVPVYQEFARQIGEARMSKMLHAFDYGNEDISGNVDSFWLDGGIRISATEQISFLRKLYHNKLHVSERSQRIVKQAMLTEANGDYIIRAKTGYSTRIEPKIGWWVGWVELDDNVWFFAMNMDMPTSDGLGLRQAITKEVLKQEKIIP
SHV-12, sequence (P0AD64 22-286 L31Q/G234S/E235K): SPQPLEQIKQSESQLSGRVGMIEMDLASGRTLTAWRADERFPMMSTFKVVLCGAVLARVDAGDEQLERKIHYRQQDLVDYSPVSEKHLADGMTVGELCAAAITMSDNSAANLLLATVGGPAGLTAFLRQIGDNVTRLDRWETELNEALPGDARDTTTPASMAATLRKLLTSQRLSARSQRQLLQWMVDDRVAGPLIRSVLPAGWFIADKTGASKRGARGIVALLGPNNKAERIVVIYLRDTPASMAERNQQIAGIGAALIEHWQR

NC(=O)C(=O)N[C@H]1Cc2cccc(C(=O)O)c2OB1O [Compound 17, (R)-3-(2-amino-2-oxoacetamido)-2-hydroxy-3,4-dihydro-2H-benzo[e][1,2]oxaborinine-8-carboxylic acid]
TIG MPC4 CTX-M-15 KP1009 (KP1009 (CTX-M-15) [1]; [11]): Y (Y = MIC of 1 μg/mL to 10 μg/mL) | AZT MPC4 ECL1002 (ECL1002): Y (Y = MIC of 1 μg/mL to 10 μg/mL) | PAM1154/KPC-2 Biapenem MPC64 (PAM1154/KPC-2): X (key: X = Less than 10; Y = 10 to 40; Z Greater than 40) | TIG MPC4 SHV-5 ec308 (ec308 (SHV-5) [2]; [11]): Y (Y = MIC of 1 μg/mL to 10 μg/mL) | AZT MPC4 CTX-M-15 KP1009 (KP1009 (CTX-M-15) [3]): Y (key: X = MIC of less than 1 μg/mL; Y = MIC of 1 μg/mL to 10 μg/mL; Z = MIC of greater than 10 μg/mL) | TIG MPC4 CMY-6 EC1010 (EC1010 (CMY-6) [4]): X (key: X = MIC of less than 1 μg/mL; Y = MIC of 1 μg/mL to 10 μg/mL; Z = MIC of greater than 10 μg/mL) | Ki (CMY-2): 1 to 10 nM | AZT MPC4 TEM-10 ec302 (ec302 (TEM-10) [5]): X (key: X = MIC of less than 1 μg/mL; Y = MIC of 1 μg/mL to 10 μg/mL; Z = MIC of greater than 10 μg/mL) | Ki (OXA-48): 1 to 10 nM | AZT MPC4 K-2 KP1004 (KP1004 (K-2)): Y (Y = MIC of 1 μg/mL to 10 μg/mL) | PAM1032/KPC-2 Biapenem MPC64 (PAM1032/KPC-2): Z (Z Greater than 40) | TIG MPC4 TEM-10 ec302 (ec302 (TEM-10) [6]): X (key: X = MIC of less than 1 μg/mL; Y = MIC of 1 μg/mL to 10 μg/mL; Z = MIC of greater than 10 μg/mL) | Ki (SHV-12): 1 to 10 nM | Ki (CTX-M-14): 1 to 10 nM | AZT MPC4 CTX-M-14 KP1005 (KP1005 (CTX-M-14) [7]): Y (key: X = MIC of less than 1 μg/mL; Y = MIC of 1 μg/mL to 10 μg/mL; Z = MIC of greater than 10 μg/mL) | Ki (P99): 1 to 10 nM | AZT MPC4 CMY-6 EC1010 (EC1010 (CMY-6) [8]): Y (key: X = MIC of less than 1 μg/mL; Y = MIC of 1 μg/mL to 10 μg/mL; Z = MIC of greater than 10 μg/mL) | AZT MPC4 SHV-5 ec308 (ec308 (SHV-5) [9]): X (X = MIC of less than 1 μg/mL)

CC1(C)[C@H](NC(=O)/C(=N\OCC(=O)O)c2csc(N)n2)C(=O)N1OS(=O)(=O)O [Tigemonam, reference compound]
Tigemonam MIC (KP1009 (CTX-M-15) [1]; strain KP1009 CTX-M-15, tigemonam alone): >64 µg/mL | Tigemonam MIC (KP1010 (SHV-12)): >64 µg/mL | Tigemonam MIC (ec308 (SHV-5) [2]; strain ec308 SHV-5, tigemonam alone): >64 µg/mL | Tigemonam MIC (EC1010 (CMY-6) [4]; strain EC1010 CMY-6, tigemonam alone): 16 µg/mL | Tigemonam MIC (ec302 (TEM-10) [6]; strain ec302 TEM-10, tigemonam alone): >64 µg/mL | Tigemonam MIC (KP1005 (CTX-M-14) [10]): >64 µg/mL
